Structure (SMILES) | melting point [°C]
O=C(CCc1ccc(NC2=NCCN2)cc1)c1ccc(N2CCOCC2)cc1 [Example 3, 3-[4-(4,5-Dihydro-1H-imidazol-2-ylamino)phenyl]-1-(4-morpholin-4-ylphenyl)-propan-1-one] | 196 to 197.6
CCOC(=O)N1CCN(c2ccc(C(=O)CCc3ccc(NC4=NCCN4)cc3)cc2)CC1 [Example 5, 3-[4-(4,5-Dihydro-1H-imidazol-2-ylamino)phenyl]-1-[4-(4-ethoxycarbonyl-piperazin-1-yl)phenyl]propan-1-one] | 150 to 151.2

— patent publication US6417186B1, “Substituted-phenyl ketone derivatives as IP antagonists” (Syntex (U.S.A.) LLC, priority 2000, dated 2002)
